# Measurements as given in patent US12398132B2, “Derivatives of 4-(imidazo[1,2-a]pyridin-3-yl)-n-(pyridinyl)pyrimidin-2-amine as therapeutic agents” (AUCENTRA THERAPEUTICS PTY LTD, priority 2019, dated 2025).
# Where two headings read alike, the source gives them in different places.
# Experiments:
# CDK1B = CDK1B (Homo sapiens, UniProt P06493)
# CDK6/D3 = CDK6/D3 (Homo sapiens, UniProt Q00534); assay: ADP Glo kinase assay, CDK6/D3; assay type: biochemical; settings: CDK6D3; for remaining activity at 10 µM: compound at 10 μM, read-out: residual enzymatic activity (%) at 10 μM; for remaining activity at 1 µM: compound at 1 μM (values marked *), read-out: residual enzymatic activity (%) at 1 μM*
# CDK7HMAT1 = CDK7HMAT1 (Homo sapiens, UniProt P50613);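 further: kinase activity measured with an ADP-Glo luminescent kinase assay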
# Description: Inhibition of FLT3(WT), FLT3(ITD) and FLT3(D835Y) and CDKs were determined using ADP Glo Kinase assays (Promega Corporation, Madison, WI, USA). […] The kinase reactions are run for an optimised time period (FLT3-WT: 120 min, FLT3-ITD: 80 min, FLT3-D835Y: 100 min) at room temperature and then the reaction was stopped by adding 5 μL of ADP Glo reagent. […] Positive and negative controls were performed in 0.5% DMSO in the presence and absence of each FLT3 kinase, respectively. […] Half-maximal inhibition (IC50) values were calculated using a 4-parameter logistic non-linear regression model with Graphpad prism (Version 6.0). Apparent inhibition constants (Ki) values were calculated from Km (ATP) and IC50 values for the respective kinases.
# MV-4-11 = assay: Proliferation assay (resazurin/MTT), MV-4-11; assay type: cell-based; settings: Homo sapiens, MV4-11, read-out: 72 h Growth inhibition GI50, MV-4-11 cells
# CDK2E1 = CDK2E1 (Homo sapiens, UniProt P24941); settings: 1 µM
# U937 = assay: Proliferation assay (resazurin/MTT), U937; assay type: cell-based; settings: Homo sapiens, U-937, read-out: 72 h Growth inhibition GI50, U937 cells
# CDK4/D1 = CDK4/D1 (Homo sapiens, UniProt P11802); assay: ADP Glo kinase assay, CDK4/D1; assay type: biochemical; settings: CDK4D1; for remaining activity at 10 µM: compound at 10 μM, read-out: residual enzymatic activity (%) at 10 μM; for remaining activity at 1 µM: compound at 1 μM (values marked *), read-out: residual enzymatic activity (%) at 1 μM*
# CDK9/CyclinT1 = CDK9/CyclinT1 (Homo sapiens, UniProt P50750); assay: ADP Glo kinase assay, CDK9/CyclinT1; assay type: biochemical; settings: CDK9T1; for Ki: apparent Ki calculated from Km (ATP) and IC50, read-out: CDK inhibition Ki; for remaining activity at 10 µM: compound at 10 μM, read-out: residual enzymatic activity (%) at 10 μM; for remaining activity at 1 µM: compound at 1 μM (values marked *), read-out: residual enzymatic activity (%) at 1 μM*
# Chain of CDK9/CyclinT1 (P50750 whole entry, species assumed): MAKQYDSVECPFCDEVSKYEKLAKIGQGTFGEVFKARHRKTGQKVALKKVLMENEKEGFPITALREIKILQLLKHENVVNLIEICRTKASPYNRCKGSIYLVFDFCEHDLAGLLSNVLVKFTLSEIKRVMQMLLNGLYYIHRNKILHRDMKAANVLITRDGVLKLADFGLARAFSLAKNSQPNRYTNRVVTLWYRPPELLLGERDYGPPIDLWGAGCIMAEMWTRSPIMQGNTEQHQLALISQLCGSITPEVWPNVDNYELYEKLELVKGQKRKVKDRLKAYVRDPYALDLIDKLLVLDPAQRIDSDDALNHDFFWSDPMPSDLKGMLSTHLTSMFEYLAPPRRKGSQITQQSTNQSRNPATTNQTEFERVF
# Chain of CDK9/CyclinT1 (O60563 whole entry partner, species assumed): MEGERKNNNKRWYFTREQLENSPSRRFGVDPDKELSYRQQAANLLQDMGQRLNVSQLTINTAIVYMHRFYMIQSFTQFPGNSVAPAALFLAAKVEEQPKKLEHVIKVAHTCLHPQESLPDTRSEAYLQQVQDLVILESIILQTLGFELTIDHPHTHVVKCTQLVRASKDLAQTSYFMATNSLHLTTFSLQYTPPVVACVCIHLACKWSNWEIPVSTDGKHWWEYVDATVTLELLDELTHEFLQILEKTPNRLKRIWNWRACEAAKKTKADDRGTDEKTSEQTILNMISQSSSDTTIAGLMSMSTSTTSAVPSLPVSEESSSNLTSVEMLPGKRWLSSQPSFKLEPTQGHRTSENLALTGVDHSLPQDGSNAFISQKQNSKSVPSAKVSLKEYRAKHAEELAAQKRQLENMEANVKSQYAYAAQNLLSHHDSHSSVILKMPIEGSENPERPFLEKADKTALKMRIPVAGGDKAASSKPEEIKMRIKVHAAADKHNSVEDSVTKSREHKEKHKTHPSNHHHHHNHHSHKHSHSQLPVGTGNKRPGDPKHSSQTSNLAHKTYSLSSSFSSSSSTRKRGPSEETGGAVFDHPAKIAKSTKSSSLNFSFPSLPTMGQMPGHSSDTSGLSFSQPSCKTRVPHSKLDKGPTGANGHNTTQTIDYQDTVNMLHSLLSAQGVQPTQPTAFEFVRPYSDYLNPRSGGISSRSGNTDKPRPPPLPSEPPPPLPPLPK
# Description: Inhibition of FLT3(WT), FLT3(ITD) and FLT3(D835Y) and CDKs were determined using ADP Glo Kinase assays (Promega Corporation, Madison, WI, USA). […] Similarly, kinase reaction for CDK4/D1 and CDK6/D3 was performed with reaction buffer (40 nM Tris base pH 7.5, 20 mM MgCl2, 0.4 mM DTT), 0.1 mg/ml BSA and RB-CTF substrate (retinoblastoma protein1 C-terminal fraction). For CDK9/CyclinT1, the kinase reaction was performed with the standard assay buffer and Kinase Dilution Buffer and RBER-IRStide substrate. Half-maximal inhibition (IC50) values were calculated using a 4-parameter logistic non-linear regression model with Graphpad prism (Version 6.0). Apparent inhibition constants (Ki) values were calculated from Km (ATP) and IC50 values for the respective kinases.
# Chain of CDK1B (P06493 whole entry): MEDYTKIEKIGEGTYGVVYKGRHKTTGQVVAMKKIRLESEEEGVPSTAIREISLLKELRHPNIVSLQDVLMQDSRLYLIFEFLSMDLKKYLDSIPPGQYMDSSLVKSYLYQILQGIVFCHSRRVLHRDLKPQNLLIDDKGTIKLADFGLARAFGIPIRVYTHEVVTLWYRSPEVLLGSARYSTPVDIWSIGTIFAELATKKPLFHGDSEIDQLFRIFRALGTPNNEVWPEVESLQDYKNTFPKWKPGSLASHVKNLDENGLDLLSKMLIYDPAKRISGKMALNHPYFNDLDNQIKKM
# Chain of CDK1B (P14635 whole entry partner): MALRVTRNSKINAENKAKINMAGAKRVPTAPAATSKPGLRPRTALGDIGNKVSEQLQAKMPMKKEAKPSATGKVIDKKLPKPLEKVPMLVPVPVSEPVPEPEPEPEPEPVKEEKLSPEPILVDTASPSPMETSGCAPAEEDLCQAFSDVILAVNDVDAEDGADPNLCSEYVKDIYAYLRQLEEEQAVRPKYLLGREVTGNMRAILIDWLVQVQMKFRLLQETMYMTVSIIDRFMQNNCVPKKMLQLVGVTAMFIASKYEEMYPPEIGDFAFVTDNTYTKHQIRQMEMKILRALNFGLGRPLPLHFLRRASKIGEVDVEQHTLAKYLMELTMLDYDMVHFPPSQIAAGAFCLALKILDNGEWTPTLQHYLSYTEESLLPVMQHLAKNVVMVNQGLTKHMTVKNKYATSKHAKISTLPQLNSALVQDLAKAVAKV
# Chain of CDK6/D3 (Q00534 whole entry, species assumed): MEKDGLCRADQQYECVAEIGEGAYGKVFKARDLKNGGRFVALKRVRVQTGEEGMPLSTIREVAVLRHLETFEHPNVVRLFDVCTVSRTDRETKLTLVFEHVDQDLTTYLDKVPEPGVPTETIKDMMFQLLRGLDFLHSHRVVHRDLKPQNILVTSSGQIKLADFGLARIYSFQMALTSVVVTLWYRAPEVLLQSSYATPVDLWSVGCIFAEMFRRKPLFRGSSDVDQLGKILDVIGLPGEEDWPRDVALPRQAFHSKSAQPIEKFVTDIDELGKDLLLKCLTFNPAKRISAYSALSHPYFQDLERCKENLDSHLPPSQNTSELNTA
# Chain of CDK6/D3 (P30281 whole entry partner, species assumed): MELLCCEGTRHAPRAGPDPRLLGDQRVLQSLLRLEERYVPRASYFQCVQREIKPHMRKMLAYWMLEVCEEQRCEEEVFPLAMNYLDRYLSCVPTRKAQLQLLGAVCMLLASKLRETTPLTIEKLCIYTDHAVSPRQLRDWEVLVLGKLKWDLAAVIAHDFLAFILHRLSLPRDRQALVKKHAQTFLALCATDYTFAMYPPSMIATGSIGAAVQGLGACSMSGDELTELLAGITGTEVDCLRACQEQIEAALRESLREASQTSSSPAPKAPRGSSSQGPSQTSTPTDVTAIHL
# Chain of CDK4/D1 (P11802 whole entry, species assumed): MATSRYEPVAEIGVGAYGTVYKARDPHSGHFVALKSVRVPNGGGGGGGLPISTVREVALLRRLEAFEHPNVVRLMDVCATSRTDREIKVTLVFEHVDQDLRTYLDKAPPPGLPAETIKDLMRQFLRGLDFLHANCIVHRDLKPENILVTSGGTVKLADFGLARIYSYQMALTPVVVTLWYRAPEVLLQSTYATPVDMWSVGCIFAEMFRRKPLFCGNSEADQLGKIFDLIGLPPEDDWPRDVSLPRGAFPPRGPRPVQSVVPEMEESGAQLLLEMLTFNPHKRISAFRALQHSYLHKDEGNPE
# Chain of CDK4/D1 (P24385 whole entry partner, species assumed): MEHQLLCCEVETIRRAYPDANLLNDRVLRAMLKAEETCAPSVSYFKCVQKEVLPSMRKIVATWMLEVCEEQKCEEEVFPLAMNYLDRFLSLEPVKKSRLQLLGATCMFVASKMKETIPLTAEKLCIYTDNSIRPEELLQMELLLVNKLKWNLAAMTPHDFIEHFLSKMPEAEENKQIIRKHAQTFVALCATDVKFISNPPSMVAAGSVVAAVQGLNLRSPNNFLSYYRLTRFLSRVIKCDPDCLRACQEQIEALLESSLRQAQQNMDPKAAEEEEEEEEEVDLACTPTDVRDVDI
# Chain of CDK7HMAT1 (P50613 whole entry): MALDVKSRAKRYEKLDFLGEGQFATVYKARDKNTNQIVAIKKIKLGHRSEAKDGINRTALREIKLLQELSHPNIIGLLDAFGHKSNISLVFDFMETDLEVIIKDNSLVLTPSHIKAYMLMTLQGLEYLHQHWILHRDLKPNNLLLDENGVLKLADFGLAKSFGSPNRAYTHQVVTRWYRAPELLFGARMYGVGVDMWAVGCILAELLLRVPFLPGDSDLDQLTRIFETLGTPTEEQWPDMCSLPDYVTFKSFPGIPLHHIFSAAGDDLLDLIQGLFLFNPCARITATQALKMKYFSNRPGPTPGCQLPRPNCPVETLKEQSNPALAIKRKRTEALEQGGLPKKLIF
# Chain of CDK7HMAT1 (P51946 whole entry partner): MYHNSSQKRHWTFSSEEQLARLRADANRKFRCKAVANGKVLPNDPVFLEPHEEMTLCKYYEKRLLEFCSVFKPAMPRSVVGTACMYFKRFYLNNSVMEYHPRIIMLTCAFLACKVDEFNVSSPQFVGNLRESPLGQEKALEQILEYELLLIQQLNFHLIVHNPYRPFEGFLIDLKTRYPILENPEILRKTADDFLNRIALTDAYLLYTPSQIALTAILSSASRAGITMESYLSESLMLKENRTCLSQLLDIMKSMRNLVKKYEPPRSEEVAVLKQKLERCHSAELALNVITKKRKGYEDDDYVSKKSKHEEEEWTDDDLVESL
# Chain of CDK7HMAT1 (P51948 whole entry partner): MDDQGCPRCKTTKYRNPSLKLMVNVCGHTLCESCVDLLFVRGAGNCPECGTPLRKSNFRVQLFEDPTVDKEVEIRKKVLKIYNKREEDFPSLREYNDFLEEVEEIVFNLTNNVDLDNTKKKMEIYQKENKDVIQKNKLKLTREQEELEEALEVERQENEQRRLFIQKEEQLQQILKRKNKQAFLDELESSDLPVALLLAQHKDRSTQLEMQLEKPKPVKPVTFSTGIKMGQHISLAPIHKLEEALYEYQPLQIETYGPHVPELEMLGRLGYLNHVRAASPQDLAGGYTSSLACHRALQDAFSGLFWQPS
SMILES,activity (CDK1B; 10 µM),remaining activity at 10 µM (CDK6/D3),activity (CDK7HMAT1; 10 µM),GI50 (MV-4-11),activity (CDK2E1),GI50 (U937),remaining activity at 10 µM (CDK4/D1),Ki (CDK9/CyclinT1),"Ki (CDK6/D3; apparent Ki calculated from Km (ATP) and IC50, read-out: CDK inhibition Ki)",remaining activity at 10 µM (CDK9/CyclinT1),activity (CDK1B; 1 µM),remaining activity at 1 µM (CDK6/D3),activity (CDK7HMAT1; 1 µM),remaining activity at 1 µM (CDK4/D1),remaining activity at 1 µM (CDK9/CyclinT1)
"CC(=O)N1CCCN(c2ccc(Nc3nccc(-c4cnc5ccccn45)n3)nc2)CC1 [Cmpd 6, 1-(4-(6-((4-(Imidazo[1,2-a]pyridin-3-yl)pyrimidin-2-yl)amino)pyridin-3-yl)-1,4-diazepan-1-yl)ethan-1-one]",50%,24%,70%,35 nM,85%,11400 nM,48%,1380 nM,–,–,–,–,–,–,–
"CC(=O)N1CCN(c2ccc(Nc3nccc(-c4cnc5ccc(F)cn45)n3)nc2)CC1 [Cmpd 8, 1-(4-(6-((4-(6-Fluoroimidazo[1,2-a]pyridin-3-yl)pyrimidin-2-yl)amino)pyridin-3-yl)piperazin-1-yl)ethan-1-one]",27%,40%,82%,30 nM,59%,1410 nM,27%,289 nM,–,–,–,–,–,–,–
"CC(=O)N1CCN(c2ccc(Nc3nccc(-c4cnc5ccc(C(F)(F)F)cn45)n3)nc2)CC1 [Cmpd 11, 1-(4-(6-((4-(6-(Trifluoromethyl)imidazo[1,2-a]pyridin-3-yl)pyrimidin-2-yl)amino)pyridin-3-yl)piperazin-1-yl)ethan-1-one]",38%,–,60%,14 nM,97%,3900 nM,46%,–,> 5000 nM,32%,–,–,–,–,–
"CC(=O)N1CCN(c2ccc(Nc3nccc(-c4cnc5ccc(-c6ccco6)cn45)n3)nc2)CC1 [Cmpd 12, 1-(4-(6-((4-(6-(Furan-2-yl)imidazo[1,2-a]pyridin-3-yl)pyrimidin-2-yl)amino)pyridin-3-yl)piperazin-1-yl)ethan-1-one]",70%,42%,86%,9 nM,67%,400 nM,93%,–,–,29%,–,–,–,–,–
"CC(=O)N1CCN(c2ccc(Nc3nccc(-c4cnc5ccc(-c6ccccc6)cn45)n3)nc2)CC1 [Cmpd 14, 1-(4-(6-((4-(6-Phenylimidazo[1,2-a]pyridin-3-yl)pyrimidin-2-yl)amino)pyridin-3-yl)piperazin-1-yl)ethan-1-one]",94%,92%,78%,7 nM,56%,664 nM,69%,699 nM,–,–,–,–,–,–,–
"CC(=O)N1CCN(c2ccc(Nc3nccc(-c4cnc5ccc(-c6cccnc6)cn45)n3)nc2)CC1 [Cmpd 15, 1-(4-(6-((4-(6-(Pyridin-3-yl)imidazo[1,2-a]pyridin-3-yl)pyrimidin-2-yl)amino)pyridin-3-yl)piperazin-1-yl)ethan-1-one]",64%,91%,65%,5 nM,88%,1480 nM,77%,680 nM,–,–,–,–,–,–,–
"CC(=O)N1CCN(c2ccc(Nc3nccc(-c4cnc5ccc(-c6cnc(N)nc6)cn45)n3)nc2)CC1 [Cmpd 18, 1-(4-(6-((4-(6-(2-Aminopyrimidin-5-yl)imidazo[1,2-a]pyridin-3-yl)pyrimidin-2-yl)amino)pyridin-3-yl)piperazin-1-yl)ethan-1-one]",69%,100%,99%,23 nM,97%,8700 nM,48%,–,–,–,–,–,–,–,–
"COc1ncc(-c2ccc3ncc(-c4ccnc(Nc5ccc(N6CCN(C(C)=O)CC6)cn5)n4)n3c2)cn1 [Cmpd 19, 1-(4-(6-((4-(6-(2-Methoxypyrimidin-5-yl)imidazo[1,2-a]pyridin-3-yl)pyrimidin-2-yl)amino)pyridin-3-yl)piperazin-1-yl)ethan-1-one]",96%,65%,54%,17 nM,82%,6710 nM,53%,–,–,33%,–,–,–,–,–
"CC(=O)N1CCN(c2ccc(Nc3nccc(-c4cnc5ccc(-c6cc7ccccc7o6)cn45)n3)nc2)CC1 [Cmpd 21, 1-(4-(6-((4-(6-(Benzofuran-2-yl)imidazo[1,2-a]pyridin-3-yl)pyrimidin-2-yl)amino)pyridin-3-yl)piperazin-1-yl)ethan-1-one]",95%,102%,97%,17 nM,86%,4560 nM,78%,> 5000 nM,–,–,–,–,–,–,–
"CC(=O)N1CCN(c2ccc(Nc3nccc(-c4cnc5ccc(-c6cc7ccccc7s6)cn45)n3)nc2)CC1 [Cmpd 22, 1-(4-(6-((4-(6-(Benzo[b]thiophen-2-yl)imidazo[1,2-a]pyridin-3-yl)pyrimidin-2-yl)amino)pyridin-3-yl)piperazin-1-yl)ethan-1-one]",100%,102%,106%,2 nM,83%,> 10000 nM,64%,> 5000 nM,–,–,–,–,–,–,–
"CC(=O)N1CCN(c2ccc(Nc3nccc(-c4cnc5ccc(-c6cc[nH]c6)cn45)n3)nc2)CC1 [Cmpd 23, 1-(4-(6-((4-(6-(1H-Pyrrol-3-yl)imidazo[1,2-a]pyridin-3-yl)pyrimidin-2-yl)amino)pyridin-3-yl)piperazin-1-yl)ethan-1-one]",59%,71%,55%,1 nM,76%,323 nM,50%,421 nM,–,–,–,–,–,–,–
"CC(=O)N1CCN(c2ccc(Nc3nccc(-c4cnc5ccc(-c6ccsc6)cn45)n3)nc2)CC1 [Cmpd 26, 1-(4-(6-((4-(6-(Thiophen-3-yl)imidazo[1,2-a]pyridin-3-yl)pyrimidin-2-yl)amino)pyridin-3-yl)piperazin-1-yl)ethan-1-one]",–,–,–,4 nM,73%,538 nM,–,–,–,–,95%,73%,83%,73%,36%
"CC(=O)N1CCN(c2ccc(Nc3nccc(-c4cnc5ccc(-c6cnn(C)c6)cn45)n3)nc2)CC1 [Cmpd 27, 1-(4-(6-((4-(6-(1-Methyl-1H-pyrazol-4-yl)imidazo[1,2-a]pyridin-3-yl)pyrimidin-2-yl)amino)pyridin-3-yl)piperazin-1-yl)ethan-1-one]",–,–,–,2 nM,89%,883 nM,–,–,–,–,88%,70%,93%,70%,31%
"CC(=O)N1CCN(c2ccc(Nc3nccc(-c4cnc5ccc(-c6cc7ccccc7n6C)cn45)n3)nc2)CC1 [Cmpd 39, 1-(4-(6-((4-(6-(1-Methyl-1H-indol-2-yl)imidazo[1,2-a]pyridin-3-yl)pyrimidin-2-yl)amino)pyridin-3-yl)piperazin-1-yl)ethan-1-one]",–,–,–,38 nM,92%,> 10000 nM,–,–,–,–,101%,85%,–,95%,69%
"CC(=O)N1CCN(c2ccc(Nc3ncc(C)c(-c4cnc5ccccn45)n3)nc2)CC1 [Cmpd 44, 1-(4-(6-((4-(Imidazo[1,2-a]pyridin-3-yl)-5-methylpyrimidin-2-yl)amino)pyridin-3-yl)piperazin-1-yl)ethan-1-one]",–,–,–,387 nM,66%,> 10000 nM,–,–,–,–,91%,68%,–,63%,93%
"CN1CCN(c2ccc(Nc3nccc(-c4cnc5ccc(-c6ccccc6)cn45)n3)nc2)CC1 [Cmpd 46, N-(5-(4-Methylpiperazin-1-yl)pyridin-2-yl)-4-(6-phenylimidazo[1,2-a]pyridin-3-yl)pyrimidin-2-amine]",–,–,–,7 nM,–,2400 nM,–,–,–,–,–,86%,–,63%,–
"CS(=O)(=O)N1CCN(c2ccc(Nc3nccc(-c4cnc5ccccn45)n3)nc2)CC1 [Cmpd 48, 4-(Imidazo[1,2-a]pyridin-3-yl)-N-(5-(4-(methylsulfonyl)piperazin-1-yl)pyridin-2-yl)pyrimidin-2-amine]",–,–,–,48 nM,73%,1880 nM,–,–,–,–,90%,71%,–,76%,43%
"CS(=O)(=O)N1CCN(c2ccc(Nc3nccc(-c4cnc5ccc(-c6ccccc6)cn45)n3)nc2)CC1 [Cmpd 54, N-(5-(4-(Methylsulfonyl)piperazin-1-yl)pyridin-2-yl)-4-(6-phenylimidazo[1,2-a]pyridin-3-yl)pyrimidin-2-amine]",–,–,–,9 nM,–,4330 nM,–,–,–,–,–,–,–,–,52%
